Measurements published in US11168102B1, “Bicyclic heteroaryl compounds and uses thereof” (Revolution Medicines, Inc., priority 2019, dated 2021).

How the values were obtained:
[1] = molecular target: SOS1 catalytic domain (residues 564-1049) (Homo sapiens (Human), UniProt Q07889); test: Potency assay: binding affinity to SOS1 by Surface Plasmon Resonance (SPR); settings: avi-tagged SOS1 catalytic domain immobilized on sensor chip; 1:1 equilibrium binding fit
[2] = system: cellular pERK in PC-9 cells (EGFR Ex19Del); test: Potency assay: pERK (AlphaLISA SureFire Ultra p-ERK1/2) in PC-9 cells; format: cell-based; settings: Homo sapiens, PC-9, 1 h, PC-9 cells (EGFR Ex19Del), 1 hour incubation, AlphaLISA SureFire Ultra p-ERK1/2; read-out: SOS1 pERK IC50
[3] = molecular target: SOS1 nucleotide exchange of wild-type KRAS (Homo sapiens (Human), UniProt Q07889); test: Mode of action assay: inhibition of SOS1 nucleotide exchange activity (TR-FRET); format: biochemical; settings: SOS1 catalytic domain (564-1049), avi-tagged KRAS (1-169), EDA-GTP-DY-647P1; three replicates
SOS1 nucleotide exchange of wild-type KRAS, sequence (Q07889 564-1049): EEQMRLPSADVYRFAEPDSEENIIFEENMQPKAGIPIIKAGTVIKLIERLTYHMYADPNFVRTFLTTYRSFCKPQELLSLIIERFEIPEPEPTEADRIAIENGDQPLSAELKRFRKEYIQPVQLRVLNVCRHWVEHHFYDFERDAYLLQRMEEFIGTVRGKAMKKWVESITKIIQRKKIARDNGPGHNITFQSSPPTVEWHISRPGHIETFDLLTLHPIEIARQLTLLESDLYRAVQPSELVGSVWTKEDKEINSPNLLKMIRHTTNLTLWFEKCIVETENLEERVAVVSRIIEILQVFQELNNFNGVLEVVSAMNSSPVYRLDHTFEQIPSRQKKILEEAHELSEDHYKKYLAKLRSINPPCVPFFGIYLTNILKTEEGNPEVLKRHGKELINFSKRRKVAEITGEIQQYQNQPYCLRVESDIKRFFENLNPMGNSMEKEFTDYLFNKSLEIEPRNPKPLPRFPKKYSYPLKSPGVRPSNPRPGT

SOS1 catalytic domain (residues 564-1049), sequence (Q07889 564-1049): as above

| Structure (SMILES) | Kd [1] [nM] | IC50 [2] [nM] | IC50 [3] [nM] |
| --- | --- | --- | --- |
| C[C@@H](Nc1ncnc2c1cc(C1(O)CCS(=O)(=O)C1)c(=O)n2C)c1cccc(C(F)F)c1F (stereo partly drawn) [Example 28-3] | 128 | 111 | 99.8 |
| C[C@@H]1CN(C(=O)c2cc3c(N[C@H](C)c4cccc(C(F)F)c4F)ncnc3n(C)c2=O)C[C@@H](C)O1 [Example 26-21] | 114 | 520 | 24.9 |
| C[C@@H](Nc1ncnc2c1cc(C1CN(C)CCO1)c(=O)n2C)c1cccc(C(F)F)c1F (stereo partly drawn) [Example 8-1] | 24.2 | 68.4 | 24.6 |
| CC(=O)N1CC=C(c2cc3c(N[C@H](C)c4cccc5c4OCC5(F)F)ncnc3n(C)c2=O)CC1 [Example 1-18] | 22 | 67 | 12.8 |
| C[C@@H](Nc1ncnc2c1cc(C(=O)N1CCS(=O)(=O)CC1)c(=O)n2C)c1cccc(C(F)F)c1F [Example 26-38] | 235 | 392 | 156 |
| C[C@@H](Nc1ncnc2c1cc(C(=O)N1C3CC1CN(C)C3)c(=O)n2C)c1cccc(C(F)F)c1F [Example 26-11] | 97.8 | 251 | 46.1 |
| C[C@@H](Nc1ncnc2c1cc(C1(F)CCS(=O)(=NC3CC3)CC1)c(=O)n2C)c1cccc(C(F)F)c1F (single isomer, unassigned) [Example 57] | 9.19 | 42.6 | 7.65 |
| C[C@@H](Nc1ncnc2c1cc(C1=CCN(C)CC1)c(=O)n2C)c1cccc(C(F)(F)F)c1 [Example 1-8] | 20 | 169 | 20.1 |
| C[C@@H](Nc1ncnc2c1cc(C(=O)N(C)c1nccs1)c(=O)n2C)c1cccc(C(F)F)c1F [Example 26-20] | 1460 | 1750 | 331 |
| Cc1nc(N[C@H](C)c2cccc(C(F)F)c2F)c2cc(C3CCN(C)CC3)c(=O)n(C)c2n1 [Example 8-2] | 64.4 | 265 | 21.2 |
| C[C@@H](Nc1ncnc2c1cc(C(=O)N1CCN(C)CC1)c(=O)n2C)c1cccc(C(F)F)c1F [Example 26-7] | 77.5 | 186 | 50.8 |
| COC[C@H]1CCCN1C(=O)c1cc2c(N[C@H](C)c3cccc(C(F)F)c3F)ncnc2n(C)c1=O [Example 26-24] | 160 | 794 | 54.1 |
| Cc1nc(N[C@H](C)c2cccc(C(F)F)c2F)c2cc(C3=CCNCC3)c(=O)n(C)c2n1 [Example 1-9] | 74 | 666 | 48.9 |
| C[C@@H](Nc1ncnc2c1cc(C(=O)N1CCc3ncccc31)c(=O)n2C)c1cccc(C(F)F)c1F [Example 26-26] | 269 | 228 | 72.2 |
| CC(=O)N1CC=C(c2cc3c(N[C@H](C)c4cccc(C(F)(F)F)c4C)ncnc3n(C)c2=O)CC1 [Example 1-19] | 144 | 91 | 44.3 |
| C[C@@H](Nc1ncnc2c1cc(C1(F)CCN(C)CC1)c(=O)n2C)c1cccc(C(F)F)c1F [Example 29-3] | 41.6 | 120 | 42.4 |
| C[C@@H](Nc1ncnc2c1cc(C1(O)CCC3(CC1)CS(=O)(=O)C3)c(=O)n2C)c1cccc(C(F)F)c1F [Example 28-6] | 21 | 123 | 14 |
| C[C@@H](Nc1ncnc2c1cc(C1=CCNCC1)c(=O)n2C)c1cccc(C(F)F)c1F [Example 1-3] | 7.86 | 50.3 | 21.2 |
| C[C@@H](Nc1ncnc2c1cc(C(=O)N1CCc3ccncc31)c(=O)n2C)c1cccc(C(F)F)c1F [Example 26-29] | 136 | 1450 | 97.8 |
| C[C@@H](Nc1ncnc2c1cc(C1=CCNC1)c(=O)n2C)c1cccc(C(F)F)c1F [Example 1-1] | 59.1 | 140 | 41.5 |
| C[C@@H](Nc1ncnc2c1cc(C1CCS(=O)(=O)C1)c(=O)n2C)c1cccc(C(F)F)c1F (stereo partly drawn) [Example 33-1] | 486 | 62.1 | 42.7 |
| Cc1nc(N[C@H](C)c2cccc(C(F)F)c2F)c2cc(C3CCOC3)c(=O)n(C)c2n1 (stereo partly drawn) [Example 1-29] | 157 | 309 | 129 |
| CC(=O)N1CC=C(c2cc3c(N[C@H](C)c4cccc(C(F)F)c4C)ncnc3n(C)c2=O)CC1 [Example 1-11] | 54.6 | 77 | 29.3 |
| C[C@@H](Nc1ncnc2c1cc(C(=O)N1CC(F)C1)c(=O)n2C)c1cccc(C(F)F)c1F [Example 26-1] | 285 | 994 | 162 |
| C[C@@H](Nc1ncnc2c1cc(C(=O)N1CC(O)(C(F)(F)F)C1)c(=O)n2C)c1cccc(C(F)F)c1F [Example 26-41] | 420 | 1400 | 170 |
| C[C@@H](Nc1ncnc2c1cc(C(=O)N1CCCOCC1)c(=O)n2C)c1cccc(C(F)F)c1F [Example 26-9] | 178 | 479 | 122 |
| Cc1nc(N[C@H](C)c2cccc(C(F)F)c2F)c2cc(C3=CCS(=N)(=O)CC3)c(=O)n(C)c2n1 (stereo partly drawn) [Example 23-1] | 86.2 | 76 | 78.3 |
| CC(=O)N1CCC(F)(c2cc3c(N[C@H](C)c4cccc(C(F)F)c4F)ncnc3n(C)c2=O)CC1 [Example 29-5] | 37.4 | 37.3 | 14.8 |
| COc1ncccc1-c1cc2c(N[C@H](C)c3cccc(C(F)F)c3F)nc(C)nc2n(C)c1=O [Example 21-9] | 338 | 335 | 99 |
| C[C@@H](Nc1ncnc2c1cc(C(=O)N1CCn3ccnc3C1)c(=O)n2C)c1cccc(C(F)F)c1F [Example 26-31] | 322 | 2820 | 230 |
